The results in this text go back to patent EP1077967B1, “BIPHENYL OXO-ACETIC ACIDS USEFUL IN THE TREATMENT OF INSULIN RESISTANCE AND HYPERGLYCEMIA” (Wyeth, priority 1998, dated 1999).

Read-outs that look alike come from different tables or passages of the source.

By IC50 is commonly meant the point on the concentration scale where inhibition reaches its midpoint.

Assay [1] relates to rat hepatic microsomal PTPases. In words: Inhibition of tri-phosphorylated insulin receptor dodecaphosphopeptide dephosphorylation by rat hepatic PTPases (malachite green). In kind it is biochemical. As to conditions: rat liver microsomal fraction; for % Change from Control: PTPase activity, compound at 50 µM; for IC50: % Change from Control. A general note: Liver microsomes are a subcellular fraction often used to study metabolism.

For a further assay, the target named is T1, Human recombinant PTP1B (Homo sapiens, UniProt P18031).
T1 construct: made in house
T1 sequence (P18031 1-435): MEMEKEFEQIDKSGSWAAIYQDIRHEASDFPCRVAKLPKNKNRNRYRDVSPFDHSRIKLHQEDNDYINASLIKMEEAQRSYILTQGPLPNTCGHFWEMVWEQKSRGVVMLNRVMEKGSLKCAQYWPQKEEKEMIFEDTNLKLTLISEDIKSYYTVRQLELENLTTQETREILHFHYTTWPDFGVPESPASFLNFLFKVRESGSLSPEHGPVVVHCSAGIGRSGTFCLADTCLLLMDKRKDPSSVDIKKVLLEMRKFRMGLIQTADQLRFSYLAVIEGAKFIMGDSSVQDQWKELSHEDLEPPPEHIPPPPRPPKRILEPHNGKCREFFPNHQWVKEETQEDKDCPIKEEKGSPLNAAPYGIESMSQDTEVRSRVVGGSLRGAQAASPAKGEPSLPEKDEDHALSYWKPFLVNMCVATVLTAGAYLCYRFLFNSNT
Briefly: Inhibition of tri-phosphorylated insulin receptor dodecaphosphopeptide dephosphorylation by hPTP1B (malachite green). In kind it is biochemical. The settings on record: recombinant PTP1B, dodecaphosphopeptide substrate.

In the next assay the test system is diabetic (ob/ob) mice. Briefly: Blood glucose lowering in diabetic (ob/ob) mice. The assay is classed as in vivo. The settings on record: Mus musculus, po, cells marked a = no significant activity (p<0.05) at this dose.
The mark [2] stands for this setting: read-out: % Change Insulin from Vehicle.
[3] abbreviates: plasma glucose, read-out: % Change Glucose from Vehicle.

As for `O=C(O)[C@H](Cc1ccccc1)Oc1ccc(-c2ccc(-c3c(Cc4ccccc4)oc4ccccc34)cc2)cc1` [Example 1, (2S)-2-[4'-(2-Benzyl-benzofuran-3-yl)-biphenyl-4-yloxy]-3-phenyl-propionic acid], the “% Change from Control” value in assay [1] was -53%. Moreover, the IC50 on Human recombinant PTP1B turned out to be 322 nM. Moreover, the values for the change in vivo at 100 mg/kg with diabetic (ob/ob) mice (setting [2]) and in the assay with diabetic (ob/ob) mice (setting [3]) were 17% and -40.3%, respectively.
As for `COc1ccc(-c2cc(-c3ccc(-c4c(Cc5ccccc5)sc5ccccc45)cc3)cc(-c3ccc(OC)cc3)c2OCC(=O)O)cc1` [Example 2], the IC50 in assay [1] is 28.4 µM; on Human recombinant PTP1B it was 25 nM. The change in vivo at 25 mg/kg in the assay on diabetic (ob/ob) mice (setting [2]) is 11.2%; in the assay with diabetic (ob/ob) mice (setting [3]) it was -25.5%.
On the same counts, the results for `COc1ccc(-c2cc(-c3ccc(-c4c(Cc5ccccc5)sc5ccccc45)cc3)cc(Br)c2OCC(=O)O)cc1` [Example 3] are 29.9 µM, 29 nM, 23.5% and -29.9%.
In the case of `CCCCc1oc2ccccc2c1-c1ccc(-c2ccc(OC(Cc3ccccc3)C(=O)O)cc2)cc1` (stereo not drawn) [Example 10, 2-[4'-(2-Butyl-benzofuran-3-yl)-biphenyl-4-yloxy]-3-phenyl-propionic acid], the “% Change from Control” value in assay [1] is listed as -72%. Further, at Human recombinant PTP1B, the IC50 was 440 nM. In addition, the change in vivo at 100 mg/kg with diabetic (ob/ob) mice (setting [2]) is -51.9%; with diabetic (ob/ob) mice (setting [3]) it was -34.2%.
Consider `O=C(O)C(Cc1ccccc1)Oc1ccc(-c2ccc(-c3c(Cc4ccccc4)oc4ccccc34)cc2)cc1` (stereo not drawn) [Example 11, 2-[4'-(2-Benzyl-benzofuran-3-yl)-biphenyl-4-yloxy]-3-phenyl-propionic acid], for which, in assay [1], the “% Change from Control” value is listed as -61%. In addition, the IC50 on Human recombinant PTP1B was 270 nM. Besides, the change in vivo at 100 mg/kg with diabetic (ob/ob) mice (setting [2]) is -44.9%; with diabetic (ob/ob) mice (setting [3]), -40.4%.
For the molecule `O=C(O)C(Cc1ccccc1)Oc1ccc(-c2ccc(-c3c(Cc4ccccc4)sc4ccccc34)cc2)cc1` (stereo not drawn) [Example 13, 2-[4'-(2-Benzyl-benzo[b]thiophen-3-yl)-biphenyl-4-yloxy]-3-phenyl-propionic acid], in assay [1], the “% Change from Control” value is reported as -50%. For the same molecule, the figures for the change in vivo at 100 mg/kg in the assay on diabetic (ob/ob) mice (setting [2]) and in the assay on diabetic (ob/ob) mice (setting [3]) were 5% and -36.7%, respectively.
Turning to `O=C(c1ccccc1)c1oc2ccccc2c1-c1ccc(-c2ccc(OC(Cc3ccccc3)C(=O)O)cc2)cc1` (stereo not drawn) [Example 14], the “% Change from Control” value in assay [1] was -55%. Moreover, the change in vivo at 100 mg/kg in the assay with diabetic (ob/ob) mice (setting [3]) was -39%.
For the molecule `CC(Cc1ccccc1)(Oc1ccc(-c2ccc(-c3c(Cc4ccccc4)oc4ccccc34)cc2)cc1)C(=O)O` (stereo not drawn) [Example 24, 2-[4'-(2-Benzyl-benzofuran-3-yl)-biphenyl-4-yloxy]-2-methyl-3-phenyl-propionic acid], at Human recombinant PTP1B, the IC50 is 293 nM. In addition, the change in vivo at 25 mg/kg in the assay with diabetic (ob/ob) mice (setting [3]) was -30.5%.
As for `O=C(O)CCCOc1ccc(-c2ccc(-c3c(Cc4ccccc4)sc4ccccc34)cc2)cc1Br` [Example 42], the IC50 at Human recombinant PTP1B was determined as 178 nM. The change in vivo at 25 mg/kg with diabetic (ob/ob) mice (setting [2]) is 9.9%; in the assay with diabetic (ob/ob) mice (setting [3]), -10.6%.
With `O=C(O)[C@@H](CCN1C(=O)c2ccccc2C1=O)Oc1ccc(-c2ccc(-c3c(Cc4ccccc4)oc4ccccc34)cc2)cc1` [Example 48, (2R)-2-[4'-(2-benzyl-benzofuran-3-yl)-biphenyl-4-yloxy]-4-(1,3-dioxo-1,3-dihydro-isoindol-2-yl)-butyric acid], the IC50 at Human recombinant PTP1B came to 341 nM. Also, the change in vivo at 25 mg/kg in the assay with diabetic (ob/ob) mice (setting [2]) is -30%; with diabetic (ob/ob) mice (setting [3]), 4.7%.
For `COc1ccc(-c2cc(-c3ccc(-c4c(Cc5ccccc5)oc5ccccc45)cc3)ccc2O[C@@H](Cc2ccccc2)C(=O)O)cc1` [Example 55, (2S)-2-[4-(2-benzyl-benzofuran-3-yl)-4"-methoxy-[1,1';3',1'']terphenyl-4'-yloxy]-3-phenyl-propionic acid], in that order: 43 nM, 35.4% and -13.6%.
